pIC50: −log10 of the molar value.
Test system: 616215-338-R-J1-PDC complex spheroids, viability % test/control
Assay: Anticancer human tumor 616215-338-R-J1-PDC patient-derived colon adenocarcinoma cell line growth inhibition [CLK]
Conditions: for pIC50: curve of first compound; for viability, T/C: stronger effect = lower value
Procedure, shortened: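 Patient-derived tumor cells grown as complex spheroids with HUVEC endothelial cells and mesenchymal stem cells, treated with drug combinations. Concentrations descend in half-log steps from near clinical Cmax, or from 10 microM if Cmax unknown.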

[1] = second compound 0.0316 µM, first compound 0.00949 µM
[2] = second compound 0.0316 µM, first compound 0.03 µM
[3] = second compound 0.0316 µM, first compound 0.0949 µM
[4] = second compound 0.0316 µM, first compound 0.3 µM
[5] = second compound 0.1 µM, first compound 0.00949 µM
[6] = second compound 0.1 µM, first compound 0.03 µM
[7] = second compound 0.1 µM, first compound 0.0949 µM
[8] = second compound 0.1 µM, first compound 0.3 µM
[9] = second compound 0.316 µM, first compound 0.00949 µM
[10] = second compound 0.316 µM, first compound 0.03 µM
[11] = second compound 0.316 µM, first compound 0.0949 µM
[12] = second compound 0.316 µM, first compound 0.3 µM
[13] = second compound 1 µM, first compound 0.00949 µM
[14] = second compound 1 µM, first compound 0.03 µM
[15] = second compound 1 µM, first compound 0.0949 µM
[16] = second compound 1 µM, first compound 0.3 µM
[17] = second compound 3.16 µM, first compound 0.00949 µM
[18] = second compound 3.16 µM, first compound 0.03 µM
[19] = second compound 3.16 µM, first compound 0.0949 µM
[20] = second compound 3.16 µM, first compound 0.3 µM
[21] = second compound 10 µM, first compound 0.00949 µM
[22] = second compound 10 µM, first compound 0.03 µM
[23] = second compound 10 µM, first compound 0.0949 µM
[24] = second compound 10 µM, first compound 0.3 µM
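Note: spheroids exposed to agents for 7 days.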
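Throughout, for viability, T/C: 100% = DMSO vehicle wells.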

With `C=CC(=O)Nc1cc(Nc2nccc(-c3cn(C)c4ccccc34)n2)c(OC)cc1N(C)CCN(C)C` + CNC(=O)c1ccc(Nc2nc(OC3CCCC3)c3c(-c4ccc5nc(C)oc5c4)c[nH]c3n2)c(OC)c1 the pIC50 (second compound 0.0316 µM) was < 6.52, the pIC50 (second compound 0.1 µM) was 8.68 and the pIC50 (second compound 0.316 µM) was > 9.02. The pIC50 (second compound 1 µM) was > 9.02, the pIC50 (second compound 3.16 µM) was > 9.02 and the pIC50 (second compound 10 µM) was > 9.02. It also gave a viability, T/C (second compound 0.0316 µM, first compound 0.000949 µM) of 94.3%, a viability, T/C (second compound 0.0316 µM, first compound 0.003 µM) of 87.8% and a viability, T/C [1] of 90.3%. It also gave a viability, T/C [2] of 89.4%, a viability, T/C [3] of 98.7% and a viability, T/C [4] of 95.8%. For the same molecule, the viability, T/C (second compound 0.1 µM, first compound 0.000949 µM) was 52.1%, the viability, T/C (second compound 0.1 µM, first compound 0.003 µM) was 51.2% and the viability, T/C [5] was 42.3%. For the same molecule, the viability, T/C [6] was 36.6%, the viability, T/C [7] was 40.9% and the viability, T/C [8] was 28.5%. For the same molecule, the viability, T/C (second compound 0.316 µM, first compound 0.000949 µM) was 43.9%, the viability, T/C (second compound 0.316 µM, first compound 0.003 µM) was 37.9% and the viability, T/C [9] was 39.2%. It also gave a viability, T/C [10] of 36.7%, a viability, T/C [11] of 31.6% and a viability, T/C [12] of 25.8%. The viability, T/C (second compound 1 µM, first compound 0.000949 µM) was 43.6%, the viability, T/C (second compound 1 µM, first compound 0.003 µM) was 41.9% and the viability, T/C [13] was 39.7%. For the same molecule, the viability, T/C [14] was 39%, the viability, T/C [15] was 31.8% and the viability, T/C [16] was 24.4%. For the same molecule, the viability, T/C (second compound 3.16 µM, first compound 0.000949 µM) was 39.3%, the viability, T/C (second compound 3.16 µM, first compound 0.003 µM) was 42.8% and the viability, T/C [17] was 41%. It also gave a viability, T/C [18] of 34.3%, a viability, T/C [19] of 28% and a viability, T/C [20] of 20.1%. The viability, T/C (second compound 10 µM, first compound 0.000949 µM) was 40.1%, the viability, T/C (second compound 10 µM, first compound 0.003 µM) was 40.7% and the viability, T/C [21] was 33.8%. The viability, T/C [22] was 28.8%, the viability, T/C [23] was 25.8% and the viability, T/C [24] was 22.7%.

`CC(=O)O[C@H]1C(=O)[C@@]2(C)[C@H]([C@H](OC(=O)c3ccccc3)[C@]3(O)C[C@H](OC(=O)[C@H](O)[C@@H](NC(=O)c4ccccc4)c4ccccc4)C(C)=C1C3(C)C)[C@]1(OC(C)=O)CO[C@@H]1C[C@@H]2O` + CNC(=O)c1ccc(Nc2nc(OC3CCCC3)c3c(-c4ccc5nc(C)oc5c4)c[nH]c3n2)c(OC)c1 was tested, and the pIC50 (second compound 0.0316 µM) was > 7.50, the pIC50 (second compound 0.1 µM) was > 7.50 and the pIC50 (second compound 0.316 µM) was > 7.50. The pIC50 (second compound 1 µM) was > 7.50, the pIC50 (second compound 3.16 µM) was > 7.50 and the pIC50 (second compound 10 µM) was > 7.50. It also gave a viability, T/C (second compound 0.0316 µM, first compound 0.0316 µM) of 35%, a viability, T/C (second compound 0.0316 µM, first compound 0.1 µM) of 27.8% and a viability, T/C (second compound 0.0316 µM, first compound 0.316 µM) of 23.3%. It also gave a viability, T/C (second compound 0.0316 µM, first compound 1 µM) of 27%, a viability, T/C (second compound 0.0316 µM, first compound 3.16 µM) of 30.8% and a viability, T/C (second compound 0.0316 µM, first compound 10 µM) of 36.2%. For the same molecule, the viability, T/C (second compound 0.1 µM, first compound 0.0316 µM) was 39.9%, the viability, T/C (second compound 0.1 µM, first compound 0.1 µM) was 37.7% and the viability, T/C (second compound 0.1 µM, first compound 0.316 µM) was 35.2%. For the same molecule, the viability, T/C (second compound 0.1 µM, first compound 1 µM) was 38.9%, the viability, T/C (second compound 0.1 µM, first compound 3.16 µM) was 41% and the viability, T/C (second compound 0.1 µM, first compound 10 µM) was 44.2%. For the same molecule, the viability, T/C (second compound 0.316 µM, first compound 0.0316 µM) was 34.8%, the viability, T/C (second compound 0.316 µM, first compound 0.1 µM) was 40% and the viability, T/C (second compound 0.316 µM, first compound 0.316 µM) was 32%. The viability, T/C (second compound 0.316 µM, first compound 1 µM) was 38.3%, the viability, T/C (second compound 0.316 µM, first compound 3.16 µM) was 58.5% and the viability, T/C (second compound 0.316 µM, first compound 10 µM) was 46%. For the same molecule, the viability, T/C (second compound 1 µM, first compound 0.0316 µM) was 45.6%, the viability, T/C (second compound 1 µM, first compound 0.1 µM) was 53.2% and the viability, T/C (second compound 1 µM, first compound 0.316 µM) was 56.6%. For the same molecule, the viability, T/C (second compound 1 µM, first compound 1 µM) was 60.6%, the viability, T/C (second compound 1 µM, first compound 3.16 µM) was 59.5% and the viability, T/C (second compound 1 µM, first compound 10 µM) was 58.1%. It also gave a viability, T/C (second compound 3.16 µM, first compound 0.0316 µM) of 34.3%, a viability, T/C (second compound 3.16 µM, first compound 0.1 µM) of 51.5% and a viability, T/C (second compound 3.16 µM, first compound 0.316 µM) of 63.4%. For the same molecule, the viability, T/C (second compound 3.16 µM, first compound 1 µM) was 63%, the viability, T/C (second compound 3.16 µM, first compound 3.16 µM) was 72.1% and the viability, T/C (second compound 3.16 µM, first compound 10 µM) was 63.9%. It also gave a viability, T/C (second compound 10 µM, first compound 0.0316 µM) of 39.5%, a viability, T/C (second compound 10 µM, first compound 0.1 µM) of 43.2% and a viability, T/C (second compound 10 µM, first compound 0.316 µM) of 70.7%. The viability, T/C (second compound 10 µM, first compound 1 µM) was 75%, the viability, T/C (second compound 10 µM, first compound 3.16 µM) was 62.7% and the viability, T/C (second compound 10 µM, first compound 10 µM) was 62%.

With `NC(=O)C(=Cn1cnc(-c2cc(C(F)(F)F)cc(C(F)(F)F)c2)n1)c1cncnc1` + CNC(=O)c1ccc(Nc2nc(OC3CCCC3)c3c(-c4ccc5nc(C)oc5c4)c[nH]c3n2)c(OC)c1 the pIC50 (second compound 0.0316 µM) was 6.19, the pIC50 (second compound 0.1 µM) was > 8.02 and the pIC50 (second compound 0.316 µM) was > 8.02. For the same molecule, the pIC50 (second compound 1 µM) was > 8.02, the pIC50 (second compound 3.16 µM) was > 8.02 and the pIC50 (second compound 10 µM) was > 8.02. The viability, T/C [1] was 84.9%, the viability, T/C [2] was 95.5% and the viability, T/C [3] was 96%. For the same molecule, the viability, T/C [4] was 77.6%, the viability, T/C (second compound 0.0316 µM, first compound 0.949 µM) was 36.6% and the viability, T/C (second compound 0.0316 µM, first compound 3 µM) was 18.4%. It also gave a viability, T/C [5] of 45.4%, a viability, T/C [6] of 48.2% and a viability, T/C [7] of 34.1%. For the same molecule, the viability, T/C [8] was 33.1%, the viability, T/C (second compound 0.1 µM, first compound 0.949 µM) was 32.5% and the viability, T/C (second compound 0.1 µM, first compound 3 µM) was 15.8%. For the same molecule, the viability, T/C [9] was 34%, the viability, T/C [10] was 30.4% and the viability, T/C [11] was 29.7%. The viability, T/C [12] was 25.4%, the viability, T/C (second compound 0.316 µM, first compound 0.949 µM) was 29.3% and the viability, T/C (second compound 0.316 µM, first compound 3 µM) was 12.8%. For the same molecule, the viability, T/C [13] was 34.5%, the viability, T/C [14] was 33.4% and the viability, T/C [15] was 30.5%. It also gave a viability, T/C [16] of 26.9%, a viability, T/C (second compound 1 µM, first compound 0.949 µM) of 18.3% and a viability, T/C (second compound 1 µM, first compound 3 µM) of 7.01%. The viability, T/C [17] was 33.5%, the viability, T/C [18] was 35% and the viability, T/C [19] was 27.7%. The viability, T/C [20] was 23.3%, the viability, T/C (second compound 3.16 µM, first compound 0.949 µM) was 13.1% and the viability, T/C (second compound 3.16 µM, first compound 3 µM) was 4.39%. For the same molecule, the viability, T/C [21] was 31.3%, the viability, T/C [22] was 28.5% and the viability, T/C [23] was 28.9%. For the same molecule, the viability, T/C [24] was 19.7%, the viability, T/C (second compound 10 µM, first compound 0.949 µM) was 10.8% and the viability, T/C (second compound 10 µM, first compound 3 µM) was 2.88%.
